Earlier results in patent US6682747B1 (Boehringer Ingelheim Pharma KG, priority 1998, dated 2004).

Conditions: buffered aqueous systems, pH 2-4

Q: With Cc1cnc(NC(=O)C2=C(O)c3ccccc3S(=O)(=O)N2C)s1 [meloxicam] as the compound, how does the solubility read?
A: less than 0.5 μg/ml
